Assay results as given in patent US10196363B2, “Dihydropyrimidin-2-one compounds and medical use thereof” (JAPAN TOBACCO INC., priority 2014, dated 2019).

Columns and labels:
[1] = biological target: T1, mouse RORγ (Mus musculus, UniProt P51450); assay: In vitro assay of inhibitory effect against RORγ transcriptional activity (GAL4-mRORγ LBD luciferase reporter gene assay in CHO cells); type: cell-based; conditions: for EC50: GAL4-mRORγ LBD / pG5-Luc in CHO cells, 2 days incubation; for mRORγ luciferase activity, %-of-control: value in parentheses beside the > EC50 bound, vehicle-control 0.2% DMSO alone = 100%
T1 construct: mouse RORγ, from Ile251 to Lys516; expressed in transfected cells; host or cells: CHO cells (Chinese hamster ovary), transient co-transfection with pG5-Luc
T1 sequence (P51450 251-516): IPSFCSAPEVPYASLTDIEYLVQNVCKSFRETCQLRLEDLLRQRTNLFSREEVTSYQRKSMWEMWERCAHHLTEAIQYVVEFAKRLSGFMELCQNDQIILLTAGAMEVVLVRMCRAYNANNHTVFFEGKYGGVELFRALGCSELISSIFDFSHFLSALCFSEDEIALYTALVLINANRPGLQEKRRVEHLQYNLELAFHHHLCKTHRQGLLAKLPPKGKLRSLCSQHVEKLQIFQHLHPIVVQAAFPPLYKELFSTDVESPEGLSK
Method: (§1) In Vitro Assay of Inhibitory Effect Against RORγ Transcriptional Activity
(§2) Inhibitory effect of a test article on transcriptional activity of RORγ was measured by means of the following reporter gene assay.
(§3) cDNA encoding human and mouse RORγ ligand binding domain (LBD) were obtained based on the sequences of human RORγ (Genebank registered number NM_005060.3) and mouse RORγ (Genebank registered number NM_011281.2) (LBD sequence: human RORγ, from Ser253 to Lys518; mouse RORγ, from Ile251 to Lys516).
(§4) The LBD cDNA of human or mouse RORγ was inserted into pFA-CMV vector (Strategene), which expresses GAL4-DNA binding domain fusion protein. The resulting plasmids are hereinafter referred to as GAL4-hRORγ plasmid and GAL4-mRORγ plasmid, respectively.
(§5) GAL4-hRORγ plasmid or GAL4-mRORγ plasmid was transiently co-transfected into Chinese hamster ovary cells (CHO cells) with pG5-Luc (Promega), a reporter plasmid expressing firefly luciferase depending on GAL4.
(§6) TransIT (Registered trademark) CHO transfection reagent (Mirus) was used to co-transfect GAL4-hRORγ plasmid or GAL4-mRORγ plasmid into CHO cells with pG5-Luc plasmid. One day before the assay, CHO cells were suspended in HAM F-12 Nutrient medium containing 10 v/v % fetal bovine serum and seeded at 6×10^6 cells per 175 cm^2 cell culture flask. Fifty four micro litters of TransIT (Registered trademark) CHO reagent was added into a 15 ml tube containing 1.16 mL of HAM F-12 Nutrient medium without fetal bovine serum, and mixed and incubated at room temperature for 10 min. Thirty six micro litters of plasmid solution containing the GAL4-hRORγ plasmid (400 ng), pG5-Luc plasmid (9000 ng) and pcDNA3 plasmid (8600 ng) were added into the tube and mixed gently. In case of mouse assay, a plasmid solution containing the GAL4-mRORγ plasmid (250 ng), pG5-Luc plasmid (9000 ng) and pcDNA3 plasmid (8750 ng) was added, instead. The mixture was incubated at room temperature for 10 min. Nine micro litters of CHO Mojo Reagent were then added into each tube and mixed gently. The mixture was incubated at room temperature for 10 min. The resultant transfection reagent was applied to the cell culture. After incubation at 37° C., 5% CO2 for 4 hours, the plasmid-transfected CHO cells were harvested with a trypsin treatment. The collected cells were resuspended in HAM F-12 Nutrient medium supplemented with 10 v/v % fetal bovine serum and plated into a 384-well-white plate at 8,000 cells/50 μL/well. The plate was incubated at room temperature for 1 hour and then further incubated at 37° C., 5% CO2 for 3 hours. The test articles were dissolved in dimethylsulfoxide (DMSO) to obtain a concentration of 10 mM. The resulting solution was diluted with a medium just before use and added to the cells in the plate to prepare 8 different concentrations of the test article. The final concentration of DMSO was 0.2 v/v %. After the addition of the test articles, the cells were incubated at 37° C., 5% CO2 for 2 days.
(§7) RORγ transcriptional activity was detected as the intracellular luciferase activity using SteadyLite HTS Reporter Gene Assay System (Perkin Elmer). StedyLite Reagent was diluted five-fold into a solution containing Extension reagent (10 mM Tricine, 0.2% w/v BSA, 0.02% v/v Tween-20) to obtain the luciferase substrate solution. After the measurement of the cell viability using Resazurin, the culture media in the plate were removed, and then the luciferase substrate solution was added into each well. After the incubation at room temperature for 10 minutes, luminescence of each well was measured by a microplate reader. The luciferase activity derived from the luminescence count in the vehicle-control well treated with 0.2% DMSO alone was defined as 100%, and the luciferase activity in the test article was calculated as a percentage (%-of-control) based on the value of the vehicle-control. EC50 value of test article was calculated by curve fitting with GraphPad Prism. […]

[2] = biological target: T2, human RORγ (Homo sapiens, UniProt P51449); assay: In vitro assay of inhibitory effect against RORγ transcriptional activity (GAL4-hRORγ LBD luciferase reporter gene assay in CHO cells); type: cell-based; conditions: for EC50: GAL4-hRORγ LBD / pG5-Luc in CHO cells, 2 days incubation; for hRORγ luciferase activity, %-of-control: value in parentheses beside the > EC50 bound, vehicle-control 0.2% DMSO alone = 100%
T2 construct: human RORγ, from Ser253 to Lys518; expressed in transfected cells; host or cells: CHO cells (Chinese hamster ovary), transient co-transfection with pG5-Luc
T2 sequence (P51449 253-518): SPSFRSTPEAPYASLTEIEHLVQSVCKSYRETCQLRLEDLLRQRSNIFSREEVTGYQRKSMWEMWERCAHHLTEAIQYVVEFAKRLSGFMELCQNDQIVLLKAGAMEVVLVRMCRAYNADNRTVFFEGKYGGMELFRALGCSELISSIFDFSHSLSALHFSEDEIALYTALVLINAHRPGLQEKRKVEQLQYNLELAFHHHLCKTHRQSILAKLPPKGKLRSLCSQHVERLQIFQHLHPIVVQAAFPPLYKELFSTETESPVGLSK
Method: as §1, §2, §3, §4, §5, §6, §7

| Compound | EC50 [1] [nM] | EC50 [2] [nM] | mRORγ luciferase activity, %-of-control [1] | hRORγ luciferase activity, %-of-control [2] |
| --- | --- | --- | --- | --- |
| CC(C)(C)COc1ccc(C2NC(=O)N(CCCC(=O)O)C=C2C(C)(C)C)cc1Cl (single isomer, unassigned) [Example 5, 4-{5-tert-butyl-4-[3-chloro-4-(2,2-dimethylpropoxy)-phenyl]-2-oxo-3,4-dihydro-2H-pyrimidin-1-yl}-butanoic Acid] | 24 | 34 |  |  |
| CC(C)(C)COc1ccc(C2NC(=O)N(CCCC(=O)O)C=C2C(C)(C)C)cc1Cl (single isomer, unassigned) [Example 6] | > 8000 | > 8000 | (75%) | (76%) |
| CC(C)(C)CCc1ccc(C2NC(=O)N(CCCC(=O)O)C=C2C(C)(C)C)cc1Cl (single isomer, unassigned) [Example 10] | 17 | 9 |  |  |
| CC(C)(C)CCc1ccc(C2NC(=O)N(CCCC(=O)O)C=C2C(C)(C)C)cc1Cl (single isomer, unassigned) [Example 11] | > 8000 | > 8000 | (79%) | (87%) |
| CC(C)C1=CN(CCCC(=O)O)C(=O)NC1(C)c1ccc(OCC(C)(C)C)c(Cl)c1 (single isomer, unassigned) [Example 12] | 17 | 23 |  |  |
| CC(C)C1=CN(CCCC(=O)O)C(=O)NC1(C)c1ccc(OCC(C)(C)C)c(Cl)c1 (single isomer, unassigned) [Example 13] | 5930 | 6570 |  |  |
| CC(C)C1=CN(CCC(C)C(=O)O)C(=O)NC1(C)c1ccc(OCC(C)(C)C)c(Cl)c1 (single isomer, unassigned) [Example 19] | 1210 | 2290 |  |  |
| CC(C)C1=CN(CCC(C)C(=O)O)C(=O)NC1(C)c1ccc(OCC(C)(C)C)c(Cl)c1 (single isomer, unassigned) [Example 20] | 2520 | 2930 |  |  |
| CC(C)C1=CN(CCC(C)C(=O)O)C(=O)NC1(C)c1ccc(CCC(C)(C)C)c(Cl)c1 (single isomer, unassigned) [Example 24] | 2930 | 2940 |  |  |
| CC(C)C1=CN(CCC(C)C(=O)O)C(=O)NC1(C)c1ccc(CCC(C)(C)C)c(Cl)c1 (single isomer, unassigned) [Example 25] | < 32 | < 32 |  |  |
| CCC(C)C1=CN(CCCC(=O)O)C(=O)NC1(C)c1ccc(CCC(C)(C)C)c(Cl)c1 (single isomer, unassigned) [Example 33] | 617 | 435 |  |  |
| CCC(C)C1=CN(CCCC(=O)O)C(=O)NC1(C)c1ccc(CCC(C)(C)C)c(Cl)c1 (single isomer, unassigned) [Example 34] | 21 | 13 |  |  |
| CC(C)C1=CN(CCOCC(=O)O)C(=O)NC1(C)c1ccc(CCC(C)(C)C)c(Cl)c1 (single isomer, unassigned) [Example 39] | 26 | 20 |  |  |
| CC(C)C1=CN(CCOCC(=O)O)C(=O)NC1(C)c1ccc(CCC(C)(C)C)c(Cl)c1 (single isomer, unassigned) [Example 40] | 198 | 152 |  |  |
| CC(C)C1=CN(C2CCC(C(=O)O)C2)C(=O)N[C@]1(C)c1ccc(CCC(C)(C)C)c(Cl)c1 (single isomer, unassigned) [Example 63] | > 8000 | > 8000 | (70%) | (51%) |
| CC(C)C1=CN(C2CCC(C(=O)O)C2)C(=O)N[C@@]1(C)c1ccc(CCC(C)(C)C)c(Cl)c1 (single isomer, unassigned) [Example 64] | 16 | 19 |  |  |
| CC(C)(C)CCc1ccc(C2NC(=O)N([C@H]3C[C@H](C(=O)O)C3)C=C2C(C)(C)C)cc1Cl (single isomer, unassigned) [Example 101] | 21 | 32 |  |  |

Continued, values first:

| EC50 [1] [nM] | EC50 [2] [nM] | mRORγ luciferase activity, %-of-control [1] | hRORγ luciferase activity, %-of-control [2] | Compound |
| --- | --- | --- | --- | --- |
| > 8000 | > 8000 | (76%) | (76%) | CC(C)(C)CCc1ccc(C2NC(=O)N([C@H]3C[C@H](C(=O)O)C3)C=C2C(C)(C)C)cc1Cl (single isomer, unassigned) [Example 102] |
| 1980 | 3930 |  |  | CC(C)C1=CN([C@H]2C[C@H](CC(=O)O)C2)C(=O)N[C@]1(C)c1ccc(CCC(C)(C)C)c(Cl)c1 (single isomer, unassigned) [Example 107] |
| 19 | 10 |  |  | CC(C)(C)CCc1ccc(C2(C)NC(=O)NC=C2C(C)(C)CCC(=O)O)cc1Cl (single isomer, unassigned) [Example 130, 4-{4-[3-chloro-4-(3,3-dimethyl-butyl)-phenyl]-4-methyl-2-oxo-1,2,3,4-tetrahydro-pyrimidin-5-yl}-4-methyl-pentanoic Acid] |
| 23 | 18 |  |  | CC(C)C1=CN(CCC(=O)O)C(=O)NC1(C)c1ccc(C2=CC(C)(C)CCC2)c(Cl)c1 (single isomer, unassigned) [Example 151] |
| 40 | 15 |  |  | COCCN1C=C(C(C)(C)CCC(=O)O)C(C)(c2ccc(CCC(C)(C)C)c(Cl)c2)NC1=O (single isomer, unassigned) [Example 160] |
| 29 | 14 |  |  | CC(C)C1=CN(CCC(=O)O)C(=O)NC1(C)c1ccc(C2CCCC(C)(C)C2)c(Cl)c1 (single isomer, unassigned) [Example 166] |
| 49 | 65 |  |  | CC(C)C1=CN(CCC(=O)O)C(=O)NC1(C)c1ccc(C2CCCC(C)(C)C2)c(Cl)c1 (single isomer, unassigned) [Example 167] |
| 18 | 12 |  |  | COCCN1C=C([C@H]2C[C@@H](C(=O)O)C2)C(C)(c2ccc(CCC(C)(C)C)c(Cl)c2)NC1=O (single isomer, unassigned) [Example 168] |
| 15 | 8 |  |  | CC(C)C1=CN(CCC(=O)O)C(=O)N[C@@]1(C)c1ccc(C2CC2C(C)(C)C)c(Cl)c1 (single isomer, unassigned) [Example 169] |
| 40 | 58 |  |  | CC(C)C1=CN(CCC(=O)O)C(=O)N[C@@]1(C)c1ccc(C2CC2C(C)(C)C)c(Cl)c1 (single isomer, unassigned) [Example 170] |
| 14 | 12 |  |  | CC(C)(C)CCc1ccc(C2(C)NC(=O)N(CCC(=O)O)C=C2C2(C)CC2)cc1Cl (single isomer, unassigned) [Example 171] |
